According to patent US12503440B2, “Nitroxoline derivative, preparation method therefor, and use thereof” (Jiangsu Yahong Meditech Co., Ltd., priority 2020, dated 2025):
Converted amounts (≈) assume the structure as drawn.

What was measured:
Format in all cases: cell-based
Acinetobacter baumannii = assay: Bacteriostatic activity, micro broth dilution MIC (CLSI); conditions: 20 hours; for MIC50 / MIC90: clinical strains (carbapenem-resistant), CAMHB; for MIC50: read-out: Acinetobacter baumannii Clinical strain MIC50; for MIC90: read-out: Acinetobacter baumannii Clinical strain MIC90; for MIC: standard strain ATCC19606, CAMHB
Procedure: (§1) The purpose of this test is to determine the bacteriostatic activity of the compounds of the present invention against a representative panel of strains (Gram-negative bacteria: […] ATCC 25922, Acinetobacter baumannii ATCC 19606; Gram-positive bacteria: Staphylococcus aureus ATCC29213). Bacteriostatic activity was determined by minimum inhibitory concentration (MIC), MIC50, MIC90. This test was entrusted to Shanghai Junj Lab Co., Ltd. Except for the test drugs, all other test materials were provided by Shanghai Junj Lab Co., Ltd.
(§2) The tested bacteria were several strains of clinically isolated carbapenem-resistant Escherichia coli, several strains of carbapenem-resistant Acinetobacter baumannii, several strains of methicillin-resistant Staphylococcus aureus, and several strains of sensitive Staphylococcus aureus. Duplicate strains isolated from the same patient were eliminated. There were also three quality control strains Escherichia coli ATCC 25922, Acinetobacter baumannii ATCC 19606, and Staphylococcus aureus ATCC 29213. The activity test of each compound was carried out on one or more strains of each of the above test bacteria.
(§3) According to the recommendations of relevant documents of the American Clinical and Laboratory Standards Institute (CLSI), the micro broth dilution method was used to determine the MIC of the compounds of the present invention against clinically isolated strains. The culture solution free of drug was used as the test bacteria positive control, the culture solution free of bacterial solution was used as the drug negative control, and the culture solution free of drug solution and bacterial solution was used as the blank control. • 4.1 Formulation of antibacterial drug: All the compounds of the present invention were dissolved in DMSO. The drug concentration range was 128 mg/L-0.06 mg/L. Specific method: The compounds of the present invention were successively diluted by 1:1 with DMSO to obtain an intermediate series with a range of 25600 mg/L-12.5 mg/L. 30 μL of solution from each tube of the intermediate series of each compound was added to a 3 mL/tube series of single broth tube, and mixed well to obtain an intermediate series with a range of 256 mg/L to 0.125 mg/L. The diluted series solution was added to the drug susceptibility plate line by line, 50 μL of solution per well. All ranges became investigated ranges after being mixed with an equal volume of bacterial solution: 128-0.06 mg/L. • 4.2 Culture medium: The drug susceptibility test used cation adjusted Mueller-Hinton broth (CAMHB). • 4.3 Amount of inoculum: The test bacteria cultured overnight were adjusted to 0.5 McFarland turbidity by the direct colony suspension method, and diluted 100 folds, the final inoculum amount was 10^5 CFU/mL. • 4.4 Culture conditions: The test bacteria were cultured at 35±2° C. for 20 hours in air. 5. Interpretation and Judgment of Results
(§4) The drug susceptibility test results were interpretated by reference to CLSI 2019 edition M100 29th edition criteria.
(§5) The results of drug susceptibility test were statistically analyzed by WHONET version 5.6 software.
(§6) The culture solution free of bacterial solution was used as the drug negative control, and the culture solution free of drug solution and bacterial solution was used as the blank control, wherein no bacteria grew in both solutions.

Escherichia coli = assay: as above; conditions: 20 hours; for MIC50 / MIC90: clinical strains (carbapenem-resistant), CAMHB; for MIC50: read-out: Escherichia coli Clinical strain MIC50; for MIC90: read-out: Escherichia coli Clinical strain MIC90; for MIC: standard strain ATCC25922, CAMHB
Procedure: as §1, §2, §3, §4, §5, §6

Staphylococcus aureus = assay: as above; conditions: 20 hours; for MIC50 / MIC90: clinical strains (methicillin-resistant and sensitive), CAMHB; for MIC50: read-out: Staphylococcus aureus Clinical strain MIC50; for MIC90: read-out: Staphylococcus aureus Clinical strain MIC90; for MIC: standard strain ATCC29213, CAMHB
Procedure: as §1, §2, §3, §4, §5, §6

[1] = test system: Bladder cancer cell line UM-UC-3; assay: Inhibitory activity on cancer cells, CellTiter-Glo viability, 72 h; conditions: Homo sapiens, UMUC3, UM-UC-3, 72 h
Excerpt: (§7) • HUVEC (purchased from Allcells Biological Technology (Shanghai) Co., Ltd.); UM-UC-3 (ATCC); LNCaP Clone FGC (ATCC); RM-1 (purchased from Nanjing Cobioer Biosciences Co., Ltd.) 2. Reagents • Endothelial cell complete medium (Allcells, H-004) • Medium RPMI1640 (ATCC, 30-2001) • Medium EMEM (ATCC, 30-2003) • Medium DMEM (Gibco, 12430-054) • Fetal bovine serum (Gibco, 10091148) • Penicillin-streptomycin double anti-body (Gibco, S110JV) • DPBS (Gibco, 14190-144) • CellTiter-Glo® kit (Promega, G7573) • Trypsin (0.25%), phenol red (Gibco, 25200-056) • DMSO (Sigma, D2650) 3. Instruments • Biological safety cabinet (Suzhou Antai Airtech Co., Ltd., BSC-1300A II) • Inverted microscope (Nikon, CKX53) • Automated cell counter (Life Technologies, countess II) • Multifunctional microplate reader (Biotek, H1FM) • Shaker (Hangzhou Allsheng Instruments Co., Ltd., OS-100) • GraphPad Prism 5.0 software • XLFIT 5.3 (Inforstack Shanghai Co., Ltd.) 4. Test Method
(§8) In this test method, the following experiments were carried out in a biological safety cabinet, and the specific steps are as follows: • (1) On the first day, the cells were seeded in a 96-well plate, and the previous medium was poured off. 5 mL of DPBS was added to wash the cells, and then removed by a pipette. Then, 1 mL of trypsin (0.25%) was added, and the plate was placed in a cell culture incubator at 37° C., 5% CO2 for digestion, and taken out after about 2 to 5 minutes. New corresponding medium was added, and pipetted to resuspend the cells evenly, and the cells were then counted with an automated cell counter.
(§9) The digestion was observed using an inverted microscope.
(§10) Regarding to HUVEC, the medium used was endothelial cell complete medium; regarding to UM-UC-3, the medium used was 89v % EMEM+10v % fetal bovine serum+1 v % penicillin-streptomycin double anti-body; regarding to LNcaP Clone FGC, the medium used was 89v % RPM11640+10v % fetal bovine serum+1 v % penicillin-streptomycin double anti-body; and regarding to RM-1, the medium used was 89v % DMEM+10v % fetal bovine serum+1v % penicillin-streptomycin double anti-body. • (2) HUVEC cells were seeded in columns 1 to 11 of a 96-well plate (Corning, Cat. No. 3610) at a density of 2000 cells per well in 100 μL of medium, and the medium free of cell was added to the wells of column 12. The other three types of cells were also seeded, wherein UM-UC-3 and RM-1 cells were seeded at a density of 3000 cells per well, and LNCap Clone FGC cells were seeded at a density of 5000 cells per well. Then, the plate was placed in an incubator at 37° C., 5% CO2 for 24 hours. • (3) On the second day, the compounds of the present invention and the reference drug nitroxoline (obtained according to the preparation method disclosed in the prior art) were diluted in gradient (2.5 folds, started at 100 μmol) to obtain 8 dose points (there were a total of 8 columns of wells; the first column of wells had the highest concentration, the concentration decreased in turn, and the last column of wells had the lowest concentration). 10 uL of the compound diluted in gradient was added to the 100 μL of cells in column 1 to column 10 with an 8-channel pipette. 10 μL of the corresponding medium containing 0.33v % DMSO was added to column 11 and column 12. The plate was incubated in an incubator at 37° C., 5% CO2 for 72 hours (note: column 11 was used as MAX well with cells and no compounds; and column 12 was used as MIN well with no cells and no compounds). • (4) After treating with the compounds of the present invention for 72 hours, the cell viability detection reagents in the above CellTiter-Glo® kit were added to the 96-well plate at 50 μL per well according to the instructions. […]

[2] = test system: Prostate cancer cell line LNcaP Clone FGC; assay: as above; conditions: Homo sapiens
Excerpt: as §7, §8, §9, §10

[3] = test system: Mouse prostate cancer cell line RM-1; assay: as above; conditions: RM-1, 72 h
Excerpt: as §7, §8, §9, §10

Row | SMILES | MIC50 (Acinetobacter baumannii) [µg/mL] | MIC90 (Acinetobacter baumannii) [µg/mL] | MIC50 (Escherichia coli) [µg/mL] | MIC90 (Escherichia coli) [µg/mL] | MIC (Escherichia coli) [µg/mL] | MIC50 (Staphylococcus aureus) [µg/mL] | MIC90 (Staphylococcus aureus) [µg/mL] | IC50 [1] [µM] | IC50 [2] [µM] | IC50 [3] [µM] | MIC (Acinetobacter baumannii) [µg/mL] | MIC (Staphylococcus aureus) [µg/mL]
1 | O=[N+]([O-])c1cc(F)c(O)c2ncccc12 [Example 1, 7-fluoro-5-nitroquinolin-8-ol] | 8 (≈ 38.4 µM) | 16 (≈ 76.9 µM) | 4 (≈ 19.2 µM) | 8 (≈ 38.4 µM) | 8 (≈ 38.4 µM) | 4 (≈ 19.2 µM) | 4 (≈ 19.2 µM) | – | – | – | – | –
2 | O=[N+]([O-])c1ccc(O)c2nccc(N3CCOCC3)c12 [Example 5, 4-morpholino-5-nitroquinolin-8-ol] | – | – | – | – | – | – | – | 5.5 | 5.5 | – | – | –
3 | O=[N+]([O-])c1ccc(O)c2nccc(N3CCCCC3)c12 [Example 6, 5-nitro-4-(piperidin-1-yl)quinolin-8-ol] | – | – | – | – | – | – | – | 7 | – | – | – | –
4 | O=[N+]([O-])c1ccc(O)c2nccc(N3CCNCC3)c12 [Example 10, 5-nitro-4-(piperazin-1-yl)quinolin-8-ol] | – | – | – | – | – | – | – | 3 | – | – | – | –
5 | O=[N+]([O-])c1ccc(O)c2nccc(-c3ccncc3)c12 [Example 14, 5-nitro-4-(pyridin-4-yl)quinolin-8-ol] | – | – | – | – | – | – | – | 5 | 3.8 | – | – | –
6 | O=[N+]([O-])c1ccc(O)c2nccc(-c3cccnc3)c12 [Example 17, 5-nitro-4-(pyridin-3-yl)quinolin-8-ol] | – | – | – | – | – | – | – | 4.9 | 4.8 | 2.8 | – | –
7 | O=[N+]([O-])c1ccc(O)c2nccc(C3CCCCC3)c12 [Example 25, 4-cyclohexyl-5-nitroquinolin-8-ol] | 32 (≈ 118 µM) | 32 (≈ 118 µM) | 32 (≈ 118 µM) | 32 (≈ 118 µM) | 32 (≈ 118 µM) | 4 (≈ 14.7 µM) | 4 (≈ 14.7 µM) | – | – | – | 32 (≈ 118 µM) | 4 (≈ 14.7 µM)
8 | O=[N+]([O-])c1ccc(O)c2nccc(C(F)(F)F)c12 [Example 26, 5-nitro-4-trifluoromethylquinolin-8-ol] | 8 (≈ 31 µM) | 8 (≈ 31 µM) | 8 (≈ 31 µM) | 16 (≈ 62 µM) | 8 (≈ 31 µM) | 2 (≈ 7.75 µM) | 2 (≈ 7.75 µM) | – | – | – | 8 (≈ 31 µM) | 2 (≈ 7.75 µM)
